# Data reported in patent publication US9320270B2, “Method of field application of natural pesticides with reduced toxicity and high efficacy by means of microencapsulation” (priority 2009, dated 2016).
# Assay: decomposition during emulsification at 70° C.
# Type: physicochemical
# Conditions: without antioxidants and weak acids
# Method: The process of microencapsulation is performed adding the oil phase to the first water phase under high shear stress, being emulsified at 70° C.
substance,measurement,value
abamectin,decomposition during emulsification,5-25%
